molecular target: activated ERK2 (Homo sapiens (Human), UniProt P28482); assay: Activated ERK2 kinase assay (AlphaScreen, ERKtide peptide phosphorylation); type: biochemical; details: 0.25 nM ERK2, 200 nM ERKtide peptide, 35 μM ATP, 30 min preincubation; read-out: ERK2 IC50
Sequence (P28482 whole entry): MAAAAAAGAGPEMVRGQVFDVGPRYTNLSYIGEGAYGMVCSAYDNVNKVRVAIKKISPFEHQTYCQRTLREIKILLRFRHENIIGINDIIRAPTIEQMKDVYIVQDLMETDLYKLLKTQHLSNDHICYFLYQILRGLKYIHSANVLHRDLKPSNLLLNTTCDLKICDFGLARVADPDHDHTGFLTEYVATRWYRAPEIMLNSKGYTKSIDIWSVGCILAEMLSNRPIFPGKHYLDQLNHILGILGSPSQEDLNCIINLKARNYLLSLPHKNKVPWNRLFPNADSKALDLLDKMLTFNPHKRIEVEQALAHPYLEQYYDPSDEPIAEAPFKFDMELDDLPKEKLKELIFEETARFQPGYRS

IC50 | Compound
125000 nM | CN(C)C[C@H](NC(=O)N1Cc2nc(Nc3ccccc3)ncc2C1(C)C)c1ccccc1 [compound 168, (R)-N-(2-(dimethylamino)-1-phenylethyl)-5,5-dimethyl-2-(phenylamino)-5H-pyrrolo[3,4-d]pyrimidine-6(7H)-carboxamide]

same assay, conditions: […] ERK2, 200 nM ERKtide peptide, 35 μM ATP, 30 min preincubation; read-out: ERK2 IC50

Compound | IC50
CC1(C)c2cnc(NC3CCOCC3)nc2CN1C(=O)N[C@@H]1CCCN(S(=O)(=O)c2ccccc2F)C1 [compound 41, (R)-N-(1-((2-fluorophenyl)sulfonyl)piperidin-3-yl)-5,5-dimethyl-2-((tetrahydro-2H-pyran-4-yl)amino)-5H-pyrrolo[3,4-d]pyrimidine-6(7H)-carboxamide] | 13 nM
CC1(C)c2cnc(N[C@H]3C[C@@H](O)C3)nc2CN1C(=O)N[C@H](CO)c1ccccc1 [compound 55, N-((S)-2-hydroxy-1-phenylethyl)-2-(((1s,3R)-3-hydroxycyclobutyl)amino)-5,5-dimethyl-5H-pyrrolo[3,4-d]pyrimidine-6(7H)-carboxamide] | 677 nM
CC1(C)c2cnc(NC3CC(F)(F)C3)nc2CN1C(=O)N[C@H](CO)c1ccccc1 [compound 54, (S)-2-((3,3-difluorocyclobutyl)amino)-N-(2-hydroxy-1-phenylethyl)-5,5-dimethyl-5H-pyrrolo[3,4-d]pyrimidine-6(7H)-carboxamide] | 727 nM
CC(=O)N1CC[C@H](Nc2ncc3c(n2)CN(C(=O)N[C@H](CO)c2ccccc2)C3(C)C)C1 [compound 63, 2-(((S)-1-acetylpyrrolidin-3-yl)amino)-N-((S)-2-hydroxy-1-phenylethyl)-5,5-dimethyl-5H-pyrrolo[3,4-d]pyrimidine-6(7H)-carboxamide] | 3560 nM
CC1(C)c2cnc(N[C@H]3C[C@H](O)C3)nc2CN1C(=O)N[C@H](CO)c1ccccc1 [compound 59, N-((S)-2-hydroxy-1-phenylethyl)-2-(((1r,3S)-3-hydroxycyclobutyl)amino)-5,5-dimethyl-5H-pyrrolo[3,4-d]pyrimidine-6(7H)-carboxamide] | 839 nM
CC1(C)c2cnc(NC3CCOCC3)nc2CN1C(=O)N[C@H](CO)c1ccccc1 [compound 1, (S)-N-(2-hydroxy-1-phenylethyl)-5,5-dimethyl-2-((tetrahydro-2H-pyran-4-yl)amino)-5H-pyrrolo[3,4-d]pyrimidine-6(7H)-carboxamide] | 14 nM
CC1(C)c2cnc(NC3CCOCC3)nc2CN1C(=O)NCC1CCCCO1 (stereo not shown) [compound 14, 5,5-dimethyl-N-((tetrahydro-2H-pyran-2-yl)methyl)-2-((tetrahydro-2H-pyran-4-yl)amino)-5H-pyrrolo[3,4-d]pyrimidine-6(7H)-carboxamide] | 328 nM
C[C@H](NC(=O)N1Cc2nc(NC3CCOCC3)ncc2C1(C)C)c1ccccc1 [compound 40, (S)-5,5-dimethyl-N-(1-phenylethyl)-2-((tetrahydro-2H-pyran-4-yl)amino)-5H-pyrrolo[3,4-d]pyrimidine-6(7H)-carboxamide] | 799 nM
CC1(C)c2cnc(NC3CCOCC3)nc2CN1C(=O)N[C@@H]1CCCN(Cc2ccccc2F)C1 [compound 8, (R)-N-(1-(2-fluorobenzyl)piperidin-3-yl)-5,5-dimethyl-2-((tetrahydro-2H-pyran-4-yl)amino)-5H-pyrrolo[3,4-d]pyrimidine-6(7H)-carboxamide] | 82 nM
CC1(C)c2cnc(N[C@H]3CC[C@@H](O)CC3)nc2CN1C(=O)N[C@H](CO)c1ccccc1 [compound 62, N-((S)-2-hydroxy-1-phenylethyl)-2-(((1s,4R)-4-hydroxycyclohexyl)amino)-5,5-dimethyl-5H-pyrrolo[3,4-d]pyrimidine-6(7H)-carboxamide] | 896 nM
CC1(C)c2cnc(NC3CCOCC3)nc2CN1C(=O)NC(c1ccccc1)C(F)(F)F (stereo not shown) [compound 26, 5,5-dimethyl-2-((tetrahydro-2H-pyran-4-yl)amino)-N-(2,2,2-trifluoro-1-phenylethyl)-5H-pyrrolo[3,4-d]pyrimidine-6(7H)-carboxamide] | 125 nM
CC1(C)c2cnc(NC3CCOCC3)nc2CN1C(=O)N[C@H]1c2ccccc2C[C@H]1O [compound 38, N-((1S,2R)-2-hydroxy-2,3-dihydro-1H-inden-1-yl)-5,5-dimethyl-2-((tetrahydro-2H-pyran-4-yl)amino)-5H-pyrrolo[3,4-d]pyrimidine-6(7H)-carboxamide] | 516 nM
CC1(C)c2cnc(NC3CCOCC3)nc2CN1C(=O)NCc1cccc(F)c1 [compound 20, N-(3-fluorobenzyl)-5,5-dimethyl-2-((tetrahydro-2H-pyran-4-yl)amino)-5H-pyrrolo[3,4-d]pyrimidine-6(7H)-carboxamide] | 16 nM
CC1(C)c2cnc(NC3CCOCC3)nc2CN1C(=O)NC1(c2ccccc2)CC1 [compound 36, 5,5-dimethyl-N-(1-phenylcyclopropyl)-2-((tetrahydro-2H-pyran-4-yl)amino)-5H-pyrrolo[3,4-d]pyrimidine-6(7H)-carboxamide] | 17 nM

Further lines, results first:

IC50 | Compound
45 nM | CNC(=O)c1cccc(CNC(=O)N2Cc3nc(NC4CCOCC4)ncc3C2(C)C)c1 [compound 100, 5,5-dimethyl-N-(3-(methylcarbamoyl)benzyl)-2-((tetrahydro-2H-pyran-4-yl)amino)-5H-pyrrolo[3,4-d]pyrimidine-6(7H)-carboxamide]
11 nM | CC1(C)c2cnc(NC3CCOCC3)nc2CN1C(=O)NCc1cccc(C(N)=O)c1 [compound 88, N-(3-carbamoylbenzyl)-5,5-dimethyl-2-((tetrahydro-2H-pyran-4-yl)amino)-5H-pyrrolo[3,4-d]pyrimidine-6(7H)-carboxamide]
90 nM | O=C(NCCc1ccccc1)N1Cc2nc(NC3CCOCC3)ncc2C12CCC2 [compound 96, N-phenethyl-2′-((tetrahydro-2H-pyran-4-yl)amino)spiro[cyclobutane-1,5′-pyrrolo[3,4-d]pyrimidine]-6′(7′H)-carboxamide]
2640 nM | CC1(C)c2cnc(NCC3CCCO3)nc2CN1C(=O)N[C@H](CO)c1ccccc1 (stereo partly drawn) [compound 75, N-((S)-2-hydroxy-1-phenylethyl)-5,5-dimethyl-2-(((tetrahydrofuran-2-yl)methyl)amino)-5H-pyrrolo[3,4-d]pyrimidine-6(7H)-carboxamide]
30 nM | COC(=O)N1CC[C@@H](Nc2ncc3c(n2)CN(C(=O)N[C@H](CO)c2ccccc2)C3(C)C)C1 [compound 66, (R)-methyl 3-((6-(((S)-2-hydroxy-1-phenylethyl)carbamoyl)-5,5-dimethyl-6,7-dihydro-5H-pyrrolo[3,4-d]pyrimidin-2-yl)amino)pyrrolidine-1-carboxylate]
39 nM | CC1(C)c2cnc(NC3CCOCC3)nc2CN1C(=O)NCc1ccc([S+]([O-])C(F)(F)F)cc1 (stereo not shown) [compound 134, 5,5-dimethyl-2-((tetrahydro-2H-pyran-4-yl)amino)-N-(4-((trifluoromethyl)sulfinyl)benzyl)-5H-pyrrolo[3,4-d]pyrimidine-6(7H)-carboxamide]
164 nM | CN1CC(Nc2ncc3c(n2)CN(C(=O)N[C@H](CO)c2ccccc2)C3(C)C)CCC1=O (stereo partly drawn) [compound 84, N-((S)-2-hydroxy-1-phenylethyl)-5,5-dimethyl-2-((1-methyl-6-oxopiperidin-3-yl)amino)-5H-pyrrolo[3,4-d]pyrimidine-6(7H)-carboxamide]
158 nM | CC1(C)c2cnc(NC3CCOCC3)nc2CN1C(=O)NCc1ccccc1F [compound 120, N-(2-fluorobenzyl)-5,5-dimethyl-2-((tetrahydro-2H-pyran-4-yl)amino)-5H-pyrrolo[3,4-d]pyrimidine-6(7H)-carboxamide]
68 nM | CO[C@H]1CC[C@H](Nc2ncc3c(n2)CN(C(=O)N[C@H](CO)c2ccccc2)C3(C)C)CC1 [compound 67, N-((S)-2-hydroxy-1-phenylethyl)-2-(((1r,4S)-4-methoxycyclohexyl)amino)-5,5-dimethyl-5H-pyrrolo[3,4-d]pyrimidine-6(7H)-carboxamide]
122 nM | CC(C)Nc1ncc2c(n1)CN(C(=O)N[C@H](CO)c1ccccc1)C2(C)C [compound 74, (S)-N-(2-hydroxy-1-phenylethyl)-2-(isopropylamino)-5,5-dimethyl-5H-pyrrolo[3,4-d]pyrimidine-6(7H)-carboxamide]
146 nM | C[C@@H](NC(=O)N1Cc2nc(NC3CCOCC3)ncc2C1C1CC1)c1cccc(Cl)c1 (stereo partly drawn) [compound 172, N-((R)-1-(3-chlorophenyl)ethyl)-5-cyclopropyl-2-((tetrahydro-2H-pyran-4-yl)amino)-5H-pyrrolo[3,4-d]pyrimidine-6(7H)-carboxamide]
9 nM | C[C@@H](NC(=O)N1Cc2nc(NC3CCOCC3)ncc2C1(C)C)c1cccc(S(C)(=O)=O)c1 [compound 131, (R)-5,5-dimethyl-N-(1-(3-(methylsulfonyl)phenyl)ethyl)-2-((tetrahydro-2H-pyran-4-yl)amino)-5H-pyrrolo[3,4-d]pyrimidine-6(7H)-carboxamide]
343 nM | C[C@@H](NC(=O)N1Cc2nc(NC3CCOCC3)ncc2C1C1CC1)c1cccc(Cl)c1 (stereo partly drawn) [compound 171, N-((R)-1-(3-chlorophenyl)ethyl)-5-cyclopropyl-2-((tetrahydro-2H-pyran-4-yl)amino)-5H-pyrrolo[3,4-d]pyrimidine-6(7H)-carboxamide]
932 nM | CC1(C)c2cnc(NC3CCS(=O)(=O)C3)nc2CN1C(=O)N[C@H](CO)c1ccccc1 (stereo partly drawn) [compound 70, 2-((1,1-dioxidotetrahydrothiophen-3-yl)amino)-N-((S)-2-hydroxy-1-phenylethyl)-5,5-dimethyl-5H-pyrrolo[3,4-d]pyrimidine-6(7H)-carboxamide]
2300 nM | CNC(=O)C1CC(NC(=O)N2Cc3nc(NC4CCOCC4)ncc3C2(C)C)CN(Cc2ccccc2F)C1 (stereo not shown) [compound 102, N-(1-(2-fluorobenzyl)-5-(methylcarbamoyl)piperidin-3-yl)-5,5-dimethyl-2-((tetrahydro-2H-pyran-4-yl)amino)-5H-pyrrolo[3,4-d]pyrimidine-6(7H)-carboxamide]
22 nM | CC1(C)c2cnc(NC3CCCCC3)nc2CN1C(=O)N[C@H](CO)c1ccccc1 [compound 86, (S)-2-(cyclohexylamino)-N-(2-hydroxy-1-phenylethyl)-5,5-dimethyl-5H-pyrrolo[3,4-d]pyrimidine-6(7H)-carboxamide]

From US9546173B2 (Novartis AG, priority 2012, dated 2017)
